≈ marks a conversion by molar mass, not a printed value.
Legend:
[1] = biological target: T1, GPVI (Homo sapiens, UniProt Q9HCN6); test: label-free biophysical binding assay based on dynamic mass redistribution (DMR), immobilized GPVI; conditions: for interaction with GPVI, Mean: DMR response; for interaction profile with GPVI (in words): concentration-response
T1 sequence (Q9HCN6 21-267 limits assumed): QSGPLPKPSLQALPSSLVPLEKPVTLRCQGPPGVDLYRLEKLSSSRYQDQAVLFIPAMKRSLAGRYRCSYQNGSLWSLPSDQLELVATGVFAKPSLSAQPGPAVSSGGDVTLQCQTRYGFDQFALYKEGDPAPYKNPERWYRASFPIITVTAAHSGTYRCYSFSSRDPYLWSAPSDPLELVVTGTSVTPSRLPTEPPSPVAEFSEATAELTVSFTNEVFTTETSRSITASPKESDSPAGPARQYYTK
Excerpt: A biophysical assay to test direct interaction with GPVI was developed by using a label-free methodology based on dynamic mass redistribution (DMR).
This protocol consists of immobilizing the target protein in a surface by chemical means and then measure the refractory index of a light directed to the bottom of the surface, which contains a sensor. It has been used previously for other targets to determine the potency of ligands such as peptides and molecules [Akhter et al., (2017) and Álvarez-Coiradas et al., (2020)].
Briefly, EnSpire LFB high sensitivity plates (PerkinElmer 6057460, USA) were activated with 400 mM EDC (N-(3-dimethylaminopropyl)-N'- ethylcarbodiimide hydrochloride) (Sigma Aldrich, UK) and 100 mM sulfo-NHS (sulfo-N-hydroxysulfosuccinimide) (Thermo Fisher, USA) diluted in ultrapure water for 30 min at room temperature. Microplates were subsequently washed with ultrapure water. GPVI protein was immobilized (25 µg/ml) in 20 mM sodium acetate buffer, pH 5.5. After an overnight incubation at 4 °C, the microplate was wa- shed with PBS with 0.005% Tween-20, pH 7.4 (assay buffer). Baseline was read after three hours on EnSpireTM 2300 Multilabel Plate Reader (PerkinElmer, Singapore). Compounds were added to the microplate, incubated for 1 h and the final read was performed in the EnSpireTM 2300 Multilabel Plate Reader. Recombinant CRP and assay buffer were employed as a positive and a negative control, respectively.
Compounds were assayed by means of concentration-response curves with concentrations between 100 µM and 0.4 µM (1:3 serial dilutions in triplicates), while CRP was assayed similarly starting with 7µg/ml top dose and a total of 6 concentrations (1:2 serial dilutions in triplicates). Response (pm) was obtained by subtracting the baseline measurement from the final read.

[2] = physchem; conditions: 37 °C, aqueous buffer, kinetic from dmso stock
Procedure: (§5) Solubility was determined by nephelometry to assess its potential impact on the bioassays at active concentrations.
(§6) Then, said compounds were incubated for 2 hours at 37°C and read in a NEPHELOstar Plus (BMG LABTECH).

[3] = * from Dehring et al. (2004); cited from earlier work
[4] = metabolic stability, mouse microsomes; assay type: in vitro ADME
Procedure: Samples were transferred to a microplate and 75 µl Acetonitrile + IS(Rolipram) were added for inactivating the microsomes, and 30 µl of H2O with 0.5% formic acid for improving the chromatographic conditions and kept at 4°C. When all the samples were taken the plate was centrifuged at 46000 g for 30 min at 15°C. Stationary phase: ACQUITY BEH C18 1.7µm 2.1x50mm (Waters) Mobile phase: A: 0.1% formic; B: acetonitrile+0.1% formic acid Gradient: Table 6: UPLC gradient / Metabolic stability assay

[5] = metabolic stability, dog microsomes; assay type: in vitro ADME
Procedure: (§1) Microsomes from Tebu-bio Xenotech were employed in the assay, having a content of 20 mg/ml of protein. The following quantities were added to each well of a 96-well microplate. Table 6: Metabolic stability assay.
(§2) Plates were incubated at 37°C and 75 µL samples were taken at 0, 10, 20, 40 and 60 minutes.
(§3) Samples were transferred to a microplate and 75 µl Acetonitrile + IS(Rolipram) were added for inactivating the microsomes, and 30 µl of H2O with 0.5% formic acid for improving the chromatographic conditions and kept at 4°C. When all the samples were taken the plate was centrifuged at […] for 30 min at 15°C. Stationary phase: ACQUITY BEH C18 1.7µm 2.1x50mm (Waters) Mobile phase: A: 0.1% formic; B: acetonitrile+0.1% formic acid Gradient: Table 6: UPLC gradient / Metabolic stability assay
(§4) Metabolic stability was calculated from the logarithm of the remaining compound at each of the times evaluated.

[6] = metabolic stability, rat microsomes; assay type: in vitro ADME
Procedure: as §1, §2, §3, §4

[7] = metabolic stability, human microsomes; assay type: in vitro ADME
Procedure: as §1, §2, §3, §4

[8] = system: human platelets; test: intracellular Ca+2 mobilization assay, CRP-activated washed platelets (FLIPR Calcium 4); assay type: cell-based; conditions: Platelet, calcium mobilization in human platelets, read-out: % Inhibition of CRP effect at 1µM, Mean
Procedure: An intracellular Ca^+2 mobilization assay was used to test the activity of the ligands in platelets. This assay measures the changes in calcium in real time by fluorophore dye Calcium 4, providing a useful way to characterize platelet activation by GPVI signaling [Barrachina et al. (2021)].
Washed platelets (5x10E6) were incubated with FLIPR Calcium 4 reagent (Molecular Devices LLC, San Jose, CA, USA) in a 384-well transparent bottom plate (Greiner Bio-One International GmbH, Kremsmünster, Austria) and supplemented with Probenecid (Invitrogen™, Carlsbad, CA, USA) 0.07% for 1 h at 37 °C. Platelets were co-incubated for 10 min with the tested compounds and inhibitors of secondary mediators (2 U/mL apyrase and 10 microM indomethacin (Sigma-Aldrich, Saint Louis, MO, USA)) under nonaggregating conditions (9 microM eptifibatide (Cayman Chemicals, Ann Arbor, MI, USA)). Then, the GPVI-specific agonist Collagen-Related Peptide (CRP) was added to the platelet suspension at different doses. Both potential GPVI inhibitors and CRP were automatically dispensed by FDSS7000EX Functional Drug Screening System (Hamamatsu Photonics, Hamamatsu, Japan). Intracellular Ca^2+ mobilization was assessed by measuring fluorescence changes ([…] wavelengths) in real time for 15 min after the addition of the agonist. 100% was expressed as maximal Ca^2+ release in platelets treated with the agonist CRP. To determine IC50, compounds were tested at 9 different concentrations in duplicates starting from 10 uM and performing 1:3 serial dilutions. The analysis of the data was performed with GraphPad Prism® software (version 6.0e, March 2014) (GraphPad Software, San Diego, CA, USA) by carrying out a nonlinear regression fit for log(inhibitor) vs. relative CRP activity using a Hill slope of -1, and top and bottom constraints of 100 and 0, respectively.

[9] = solubility by nephelometry; conditions: 37 °C, aqueous buffer, kinetic from dmso stock
Procedure: as §5, §6

[10] = system: human platelets; test: platelet aggregation assay, CRP-induced; assay type: cell-based; conditions: 10 µM; CRP 1 µg/mL; Figure 2
Procedure: Platelet aggregation assays were carried out to assess the potency of the active compounds as previously described [Barrachina et al. (2021)].
Briefly, human platelets from at least =7 healthy individuals were isolated and washed. Then, the suspension was incubated with the compounds at 10 µM at 37 ∘C for 4 min in a Chrono-log® 490-X aggregometer (Chrono-log Corporation, Havertown, PA, USA). After that, platelets were stimulated with the agonist CRP at 1 µg/mL for 5 min.

[11] = system: human platelets; test: platelet spreading assay on CRP (phalloidin staining, confocal microscopy); assay type: cell-based; conditions: 10µM; CRP 1µg/mL; Figure 4
Procedure: Platelet spreading experiments were carried out to assess the potency of the compounds of formula (I), exemplified by compounds (If)and (Ih).
Platelets can change from a rounded, non-adherent form to adhere and flatten shape when exposed to ligands. This "spreading" effect can lead to the formation of cytoskeletal protein rearrangement. Platelet adhesion and extent of spreading (area covered) can be quantified.
Briefly, human platelets from healthy individuals were isolated and washed. Then, platelets were incubated with the inhibitors at 10µM for 5 min at room temperature and then for 45 min at 37°C in coverslips coated with 1µg/mL of agonist (CRP).
The images of platelet shape given by phalloidin staining were acquired by confocal fluorescence microscopy and the area analyzed by ImageJ [Onselaer et al., (2020)].

[12] = system: human platelets; test: platelet aggregation selectivity assay (agonists collagen, rhodocytin, thrombin); assay type: cell-based; conditions: 10 µM
Procedure: In addition, an assessment of the selectivity of the active compound (Ic)at 10 µM was carried out based on aggregation assays. Briefly, human platelets from healthy individuals were isolated and washed. The agonists used in this selectivity assay were collagen, rhodocytin, and thrombin.

Cc1ccc2nc(NC(=O)Cc3ccc4c(c3)OCCO4)sc2c1 [Ref. compound A, reference compound]
interaction with GPVI, Mean ([1]; Compound concentration (1µM)): -9.78 pm | interaction with GPVI, Mean ([1]; Compound concentration (10µM)): 1.91 pm | interaction profile with GPVI (in words) ([1]; DMR): did not show a good interaction profile

CC(=O)[C@H]1CC[C@H]2[C@@H]3CCC4=CC(=O)CC[C@]4(C)[C@H]3CC[C@]12C [Progesterone, reference compound]
solubility at 2 h [2]: 5.1 µM (≈ 1.6 µg/mL) | Reported solubility [3]: 3.7* µM

C[C@]12CC[C@H]3[C@@H](CCC4=CC(=O)CC[C@@]43C)[C@@H]1CC[C@@H]2O [Testosterone, reference compound]
t1/2 [4]: 4.76 min | % remanent (*) ([4]; (*) sampling time 60 min): 0.06% | % remanent (*) ([5]; Dog microsomes, (*) sampling time 60 min): 49.1% | half-life ([5]; dog, dog microsomes): 59.9 min | microsomal CLint ([5]; dog, dog microsomes): 11.8 µL/min/mg | % remanent (*) ([6]; Rat microsomes, (*) sampling time 60 min): 0.14% | half-life ([6]; rat, rat microsomes): 0.9 min | t1/2 [7]: 12.95 min | % remanent (*) ([7]; (*) sampling time 60 min): 4.02%

O=C(Cc1ccc2c(c1)OCCO2)Nc1nc(-c2ccccc2)cs1 [Compound (Ia)]
solubility at 2 h ([2]; pbs with 1% dmso): 5.4 µM (≈ 1.9 µg/mL) | inhibition at 1 µM [8]: 53.7% | interaction with GPVI, Mean ([1]; Compound concentration (1µM)): 10.8 pm | interaction with GPVI, Mean ([1]; Compound concentration (10µM)): 19.81 pm

collagen related peptide [CRP]
interaction profile with GPVI (in words) [1]: robust dose-dependent response

COc1cc2nc(N3CCN(C(=O)c4ccco4)CC3)nc(N)c2cc1OC [Prazosin, reference compound]
solubility at 2 h [2]: 77.2 µM (≈ 29.6 µg/mL) | Reported solubility [3]: 26.3* µM

O=C(Cc1ccc2c(c1)OCCO2)Nc1nc2c(Cl)cccc2s1 [Ref. compound B, reference compound]
interaction with GPVI, Mean ([1]; Compound concentration (1µM)): 6.77 pm | interaction with GPVI, Mean ([1]; Compound concentration (10µM)): -16.01 pm | interaction profile with GPVI (in words) ([1]; DMR): did not show a good interaction profile

C[C@H]1O[C@@H](O[C@H]2[C@@H](O)C[C@H](O[C@H]3[C@@H](O)C[C@H](O[C@H]4CC[C@@]5(C)[C@H](CC[C@@H]6[C@@H]5C[C@@H](O)[C@]5(C)[C@@H](C7=CC(=O)OC7)CC[C@]65O)C4)O[C@@H]3C)O[C@@H]2C)C[C@H](O)[C@@H]1O [Digoxin, reference compound]
solubility at 2 h [9]: 96.9 µM (≈ 75.7 µg/mL) | Reported solubility [3]: 59.3* µM

O=C(Cc1ccc2c(c1)OCCO2)Nc1nc(-c2ccc3ccccc3c2)cs1 [Compound (Ie)]
solubility at 2 h ([2]; pbs with 1% dmso): 22.5 µM (≈ 9.06 µg/mL) | inhibition of platelet aggregation (in words) [10]: consistent inhibition of platelet aggregation | inhibition at 1 µM [8]: 24.6% | interaction with GPVI, Mean ([1]; Compound concentration (1µM)): 6.50 pm | interaction with GPVI, Mean ([1]; Compound concentration (10µM)): 25.16 pm

O=C(Cc1ccc2c(c1)OCCO2)Nc1nc(-c2ccc3c(c2)CCCC3)cs1 [Compound (Id)]
solubility at 2 h ([2]; pbs with 1% dmso): 21.9 µM (≈ 8.9 µg/mL) | inhibition at 1 µM [8]: 36% | interaction with GPVI, Mean ([1]; Compound concentration (1µM)): 17.38 pm | interaction with GPVI, Mean ([1]; Compound concentration (10µM)): 28.66 pm

O=C(Cc1ccc2c(c1)OCCO2)Nc1nc(-c2ccc(Cl)cc2)cs1 [Compound (Ib)]
solubility at 2 h ([2]; pbs with 1% dmso): 50 µM (≈ 19.3 µg/mL) | inhibition of platelet aggregation (in words) [10]: consistent inhibition of platelet aggregation | inhibition at 1 µM [8]: 15.9% | platelet spreading on CRP (in words) [11]: inhibition of platelet spreading on CRP | interaction with GPVI, Mean ([1]; Compound concentration (1µM)): 13.76 pm | interaction with GPVI, Mean ([1]; Compound concentration (10µM)): 20.47 pm

O=C(Cc1ccc2c(c1)OCCO2)Nc1nc(-c2ccc(Br)cc2)cs1 [Compound (Ic)]
platelet aggregation, platelets exposed to collagen (in words) ([12]; agonist collagen): consistent inhibition of platelet aggregation | platelet aggregation induced by rhodocytin (in words) ([12]; agonist rhodocytin): unchanged | platelet aggregation induced by thrombin (in words) ([12]; agonist thrombin): unchanged | solubility at 2 h ([2]; pbs with 1% dmso): 51.9 µM (≈ 22.4 µg/mL) | inhibition of platelet aggregation (in words) [10]: consistent inhibition of platelet aggregation | inhibition at 1 µM [8]: 34% | platelet spreading on CRP (in words) [11]: inhibition of platelet spreading on CRP | interaction with GPVI, Mean ([1]; Compound concentration (1µM)): 12.37 pm | interaction with GPVI, Mean ([1]; Compound concentration (10µM)): 25.42 pm

Reference: patent EP4420661B1, “SMALL MOLECULES TARGETING GLYCOPROTEIN VI AS ANTIPLATELET AGENTS FOR USE IN THE PREVENTION AND/OR TREATMENT OF THROMBOSIS AND ASSOCIATED PATHOLOGIES” (Universidade de Santiago de Compostela, priority 2023, dated 2024)
